Experimental data as given in the NIST ThermoML archive (doi:10.1021/je700281z).
Several values for one entry are separate records, joined by “and”; a condition that tells them apart may be missing. Equal values may be shown once.

Tests used:
[1] = 101.33 kPa, Liquid; for speed of sound: sound analyzer
[2] = xn = mol fraction of the nth substance listed; details: 101 kPa, Liquid

COCCOCCO [2-(2-methoxyethoxy)ethanol]
[1]
Details	mass density [kg/m3]	speed of sound [m/s]
293.15 K	1019.81	1432.4
298.15 K	1015.41	1415.2
303.15 K	1010.91	1397.9

CCOCCOCCO [3,6-dioxa-1-octanol]
[1]
Details	mass density [kg/m3]	speed of sound [m/s]
293.15 K	987.876	1392.3
298.15 K	983.336	1374.3
303.15 K	978.788	1356.6

CCOCCOCCO [3,6-dioxa-1-octanol] + CCCCO
[2]
Details	mass density
293.15 K, x1 = 0.0519	823.011 kg/m3
293.15 K, x1 = 0.1029	835.52 kg/m3
293.15 K, x1 = 0.1999	857.73 kg/m3
293.15 K, x1 = 0.2989	878.535 kg/m3
293.15 K, x1 = 0.3513	888.856 kg/m3
293.15 K, x1 = 0.4015	898.337 kg/m3
293.15 K, x1 = 0.4514	907.402 kg/m3
293.15 K, x1 = 0.5492	924.169 kg/m3
293.15 K, x1 = 0.5966	931.866 kg/m3
293.15 K, x1 = 0.65	940.215 kg/m3
293.15 K, x1 = 0.7002	947.765 kg/m3
293.15 K, x1 = 0.7009	947.885 kg/m3
293.15 K, x1 = 0.7015	947.962 kg/m3
293.15 K, x1 = 0.7952	961.375 kg/m3
293.15 K, x1 = 0.8477	968.507 kg/m3
293.15 K, x1 = 0.8489	968.677 kg/m3
293.15 K, x1 = 0.8966	974.953 kg/m3
293.15 K, x1 = 0.95	981.736 kg/m3
298.15 K, x1 = 0.0512	818.966 kg/m3
298.15 K, x1 = 0.1017	831.315 kg/m3
298.15 K, x1 = 0.1026	831.513 kg/m3
298.15 K, x1 = 0.151	842.801 kg/m3
298.15 K, x1 = 0.1733	847.84 kg/m3
298.15 K, x1 = 0.2524	864.926 kg/m3
298.15 K, x1 = 0.35	884.465 kg/m3
298.15 K, x1 = 0.4025	894.359 kg/m3
298.15 K, x1 = 0.449	902.763 kg/m3
298.15 K, x1 = 0.452	903.287 kg/m3
298.15 K, x1 = 0.4995	911.551 kg/m3
298.15 K, x1 = 0.5992	927.958 kg/m3
298.15 K, x1 = 0.6015	928.324 kg/m3
298.15 K, x1 = 0.6487	935.658 kg/m3
298.15 K, x1 = 0.7001	943.37 kg/m3
298.15 K, x1 = 0.7491	950.466 kg/m3 and 950.476 kg/m3
298.15 K, x1 = 0.8	957.603 kg/m3
298.15 K, x1 = 0.8086	958.782 kg/m3
298.15 K, x1 = 0.8491	964.231 kg/m3
298.15 K, x1 = 0.8982	970.663 kg/m3
303.15 K, x1 = 0.0507	814.94 kg/m3
303.15 K, x1 = 0.1007	827.098 kg/m3
303.15 K, x1 = 0.1488	838.296 kg/m3
303.15 K, x1 = 0.1539	839.456 kg/m3
303.15 K, x1 = 0.1998	849.635 kg/m3
303.15 K, x1 = 0.2025	850.231 kg/m3
303.15 K, x1 = 0.2526	860.864 kg/m3
303.15 K, x1 = 0.3035	871.188 kg/m3
303.15 K, x1 = 0.3042	871.343 kg/m3
303.15 K, x1 = 0.3492	880.114 kg/m3
303.15 K, x1 = 0.4027	890.141 kg/m3
303.15 K, x1 = 0.4543	899.435 kg/m3
303.15 K, x1 = 0.5504	915.759 kg/m3
303.15 K, x1 = 0.5525	916.103 kg/m3
303.15 K, x1 = 0.5539	916.33 kg/m3
303.15 K, x1 = 0.6	923.723 kg/m3
303.15 K, x1 = 0.6019	924.03 kg/m3
303.15 K, x1 = 0.7506	946.255 kg/m3
303.15 K, x1 = 0.8006	953.229 kg/m3
303.15 K, x1 = 0.8496	959.837 kg/m3
303.15 K, x1 = 0.949	972.571 kg/m3

COCCOCCO [2-(2-methoxyethoxy)ethanol] + CCCCO
[2]
Details	mass density [kg/m3]
293.15 K, x1 = 0.0535	823.612
293.15 K, x1 = 0.1527	848.542
293.15 K, x1 = 0.2	860.004
293.15 K, x1 = 0.2003	860.091
293.15 K, x1 = 0.2518	872.235
293.15 K, x1 = 0.3009	883.531
293.15 K, x1 = 0.3032	884.084
293.15 K, x1 = 0.3546	895.622
293.15 K, x1 = 0.399	905.367
293.15 K, x1 = 0.4007	905.744
293.15 K, x1 = 0.4522	916.775
293.15 K, x1 = 0.5012	927.038
293.15 K, x1 = 0.5527	937.589
293.15 K, x1 = 0.5978	946.625
293.15 K, x1 = 0.6019	947.427
293.15 K, x1 = 0.6526	957.368
293.15 K, x1 = 0.6961	965.704
293.15 K, x1 = 0.7503	975.858
293.15 K, x1 = 0.7973	984.5
293.15 K, x1 = 0.8492	993.819
293.15 K, x1 = 0.8978	1002.37
293.15 K, x1 = 0.947	1010.88
298.15 K, x1 = 0.053	819.639
298.15 K, x1 = 0.1019	832.026
298.15 K, x1 = 0.1502	843.949
298.15 K, x1 = 0.2028	856.65
298.15 K, x1 = 0.2523	868.3
298.15 K, x1 = 0.3497	890.395
298.15 K, x1 = 0.454	912.946
298.15 K, x1 = 0.5507	932.958
298.15 K, x1 = 0.6013	943.061
298.15 K, x1 = 0.648	952.194
298.15 K, x1 = 0.6994	962.043
298.15 K, x1 = 0.7465	970.86
298.15 K, x1 = 0.7505	971.594
298.15 K, x1 = 0.7968	980.073
298.15 K, x1 = 0.7977	980.251
298.15 K, x1 = 0.8465	988.996
298.15 K, x1 = 0.8486	989.382
298.15 K, x1 = 0.8987	998.178
298.15 K, x1 = 0.899	998.234
298.15 K, x1 = 0.9481	1006.69
298.15 K, x1 = 0.9483	1006.72
303.15 K, x1 = 0.0508	815.157
303.15 K, x1 = 0.1014	827.941
303.15 K, x1 = 0.1471	839.22
303.15 K, x1 = 0.2015	852.303
303.15 K, x1 = 0.2528	864.365
303.15 K, x1 = 0.3048	876.239
303.15 K, x1 = 0.3503	886.405
303.15 K, x1 = 0.3555	887.558
303.15 K, x1 = 0.4005	897.361
303.15 K, x1 = 0.4503	908.007
303.15 K, x1 = 0.4981	917.96
303.15 K, x1 = 0.5518	928.933
303.15 K, x1 = 0.5996	938.439
303.15 K, x1 = 0.648	947.877
303.15 K, x1 = 0.6991	957.619
303.15 K, x1 = 0.7497	967.071
303.15 K, x1 = 0.7954	975.414
303.15 K, x1 = 0.8491	985.035
303.15 K, x1 = 0.8964	993.318
303.15 K, x1 = 0.9513	1002.75

CCCCOCCOCCO [3,6-dioxa-1-decanol] + CCCCO
[2]
Details	mass density [kg/m3]
293.15 K, x1 = 0.1013	834.791
293.15 K, x1 = 0.1505	845.543
293.15 K, x1 = 0.2017	855.876
293.15 K, x1 = 0.2529	865.45
293.15 K, x1 = 0.3005	873.704
293.15 K, x1 = 0.3516	881.978
293.15 K, x1 = 0.4507	896.487
293.15 K, x1 = 0.5005	903.11
293.15 K, x1 = 0.5506	909.377
293.15 K, x1 = 0.6036	915.608
293.15 K, x1 = 0.6493	920.67
293.15 K, x1 = 0.7	925.984
293.15 K, x1 = 0.7292	928.912
293.15 K, x1 = 0.749	930.843
293.15 K, x1 = 0.8483	939.967
298.15 K, x1 = 0.0521	819.296
298.15 K, x1 = 0.15	841.555
298.15 K, x1 = 0.2022	852.057
298.15 K, x1 = 0.2535	861.607
298.15 K, x1 = 0.301	869.838
298.15 K, x1 = 0.3487	877.538
298.15 K, x1 = 0.4028	885.726
298.15 K, x1 = 0.4536	892.882
298.15 K, x1 = 0.6017	911.346
298.15 K, x1 = 0.6501	916.714
298.15 K, x1 = 0.7003	921.969
298.15 K, x1 = 0.7486	926.743
298.15 K, x1 = 0.7986	931.465
298.15 K, x1 = 0.8491	935.973
303.15 K, x1 = 0.0462	813.931
303.15 K, x1 = 0.0516	815.259
303.15 K, x1 = 0.1015	827.004
303.15 K, x1 = 0.1522	837.999
303.15 K, x1 = 0.2002	847.641
303.15 K, x1 = 0.2536	857.548
303.15 K, x1 = 0.3008	865.688
303.15 K, x1 = 0.3513	873.826
303.15 K, x1 = 0.3997	881.12
303.15 K, x1 = 0.4513	888.394
303.15 K, x1 = 0.5047	895.427
303.15 K, x1 = 0.552	901.283
303.15 K, x1 = 0.6546	912.925
303.15 K, x1 = 0.6992	917.561
303.15 K, x1 = 0.7074	918.41
303.15 K, x1 = 0.7476	922.362
303.15 K, x1 = 0.7976	927.051
303.15 K, x1 = 0.7988	927.176
303.15 K, x1 = 0.8959	935.611

CCCCOCCOCCO [3,6-dioxa-1-decanol]
[1]
Details	mass density [kg/m3]	speed of sound [m/s]
293.15 K	952.196	1374.3
298.15 K	948.103	1357
303.15 K	943.743	1340

CCCCO [butan-1-ol]
[1]
Details	mass density [kg/m3]	speed of sound [m/s]
293.15 K	809.644	1256.7
298.15 K	805.842	1239.2
303.15 K	801.995	1222.7
